Results: patent publication US8410138B2, “Compounds for activating TGF-beta signaling” (The Board of Trustees of the Leland Stanford Junior …, priority 2007, dated 2013)
Read-outs that look alike come from different tables or passages of the source.

Key:
[1] = tested on: TGF-β signaling (SBE-SEAP reporter) in MFB-F11 cells; assay type: cell-based, mouse; conditions: for Relative TGF-β activity, fold change compared with vehicle: cell reporter assay; for TGF-β agonist activity: data of FIGS. 1A-1J
Protocol: All compounds were tested twice, in duplicate, using the MFB-F11 cell line. 80 compounds were selected for further study based on induction of the reporter gene in any of the replicates. These compounds were tested again in MFB-F11 or C6-H4 cells, either alone or in the presence of 100 pg/ml of TGF-β1, to test for synergistic activities.

[2] = tested on: fibroblasts lacking Smad2, Smad3 or Smad4; experiment: SBE reporter signaling in fibroblasts lacking elements of the TGF-β signaling pathway; assay type: cell-based; conditions: Smad4-lacking fibroblasts; FIG. 2D
Description: To understand how the TGF-β signaling agonists function and identify molecular genetic targets in cells, fibroblasts lacking different elements of the TGF-β3 signaling pathway, including Smad2, Smad3, and Smad4, were used in combination with plasmids encoding different inhibitors of the TGF-β signaling pathway to study TGF-β agonists in different backgrounds. For reference, the canonical TGF-β signaling pathway is illustrated in FIG. 2A. The biological actions of TGF-β1 are mediated through interactions with the type 2 TGF beta receptor (TBR2) 2 and the type I TGF beta receptor (TBRI) 3. Betaglycan 4 may participate in the binding of TGF-β1. Receptor activation leads to the phosphorylation of Smad proteins, such as Smad 2/3 5 and Smad 4 6, which translocate to the nucleus 7 to bind to the Smad DNA-binding element (SBE) 8, present in numerous genes, in combination with transcription factors (TF) 9. Smad 7 10 is inhibitory with respect to Smad 2/3 5 phosphorylation. Alternative signaling involves p38 11 and the MAP kinase pathway. TAB1 12 activates TAK1 13, which activates p38 11.
Because Smad2 and Smad3 can substitute for each other, results with Smad2 or Smad3 knock-out fibroblasts were more difficult to interpret. Nonetheless, the synergistic effect of TGF-β1 and 11H was blocked in the absence of Smad2 (FIG. 2B) or Smad3 (not shown). In these assays, signaling is reported via SBE elements, which are specific elements that bind Smad proteins. Thus, the 11H compound must signal through this element. Without being limited to theory, it is believed that the 3A compound functions as a competitive agonist of Smad binding to the SBE, representing a novel target and mode of action.

[3] = tested on: TGF-β signaling in the brain; experiment: SBE-luc mice after lipopolysaccharide (LPS) administration; assay type: in vivo, mouse
Description: SBE-luc mice can also be used to monitor activation of TGF-β signaling in response to glial activation after lipopolysaccharide (LPS) administration.

[4] = tested on: TGF-β signaling (SBE-luc reporter) in brain; experiment: Bioluminescence and tissue luciferase in SBE-luc reporter mice; assay type: in vivo, mouse; conditions: peripheral administration; FIG. 3E; indicates BBB passage
Description: Transgenic mice harboring the SBE-luc reporter gene were generated and used to test the present compositions in vivo. These “reporter mice” mice express SBE-luc (i.e., “the transgene”) in all cells of the body.^1,54 Intraperitoneal injection of luciferin into SBE-luc mice produces bioluminescence generated by luciferase and photons penetrating the skull can be imaged using sensitive camera systems.^1,54
To determine whether 3A and its analogs are bioactive in vivo and able to penetrate the blood brain barrier (BBB), TGF-β1, 3A, 22B02, or 13A04 were injected into reporter mice i.p. or s.q. The animals were then sacrificed at the indicated times following injection. […] There was no obvious activation of the reporter in other organs.
Bioactivity data were confirmed by biochemical measurements of tissue luciferase in hippocampal homogenates (FIG. 3E).
Two-month old SBE-luciferase transgenic mice receive different concentrations of a test compound either s.q., i.p., or orally by gavage. […] Following administration of the test or control compounds, mice are injected with luciferin i.p. At, e.g., 2, 8, and 16 hours following injection of luciferin, the mice are imaged to detect bioluminescence as described above. Brains may be harvested 16 hours following test compound injection, and may be divided sagittally. […]

[5] = tested on: primary hippocampal neurons from E16 mouse embryos; assay type: cell-based; conditions: Aβ oligomers inducing 50-70% cell death; 13A04 3 μM, TGF-β1 10 ng/ml; 24 hours
Protocol: (§1) FIG. 1H is a graph showing the relative amount of surviving 6-7 DIV hippocampal neurons of E16 mice following exposure to culture medium (CM) alone, 13A04 (3 μM), or CM containing Aβ at 2 or 5 μM with TGF-β1 (10 ng/ml) or 13A04 (3 μM). After 24 hours, cultures were fixed and surviving cells were counted. Data represent mean±SEM, n=3-7 fields counted per plate. All conditions were compared to Aβ using the Mann-Whitney test (* p<0.05, ** p<0.01). FIG. 1I is a graph showing the relative gene expression levels of the indicated TGF-β-responsive genes induced in MFB-F11 fibroblasts stimulated with TGF-β1 (yellow) or 13A04 (blue) for 24 h. mRNA was extracted, labeled and hybridized to gene expression arrays tailored for the TGF-β pathway.
Moreover, the small-molecule TGF-β agonist was not toxic at 3 μM and 10 μM (not shown).
Primary mixed neuronal cultures are exposed to Aβ oligomers and treated with compounds (0 to 10 μM concentration) and cell survival is measured using lactate dehydrogenase (LDH) release or by counting 4,6-diamidino-2-phenylindole (DAPI)-stained cells. […] Neuritic dystrophy in 21 DIV neurons can also be measured by quantifying the tortuosity of neurites as described by Ferreira et al.^70 and modified by others. […] Further incubation of these cells with the present compounds provides a sensitive assay for neuroprotection.

[6] = tested on: TGF-β-responsive genes in MFB-F11 fibroblasts; experiment: Microarray of TGF-β pathway gene expression in tgfb1−/− fibroblasts; assay type: cell-based, mouse; conditions: 1, 5, 24 hours
Protocol: as §1
A microarray assay was used to identify changes in gene expression caused by stimulating tgfb1^−/− fibroblasts with TGF-β1 or 13A04. mRNA was harvested 1, 5, and 24 hours following stimulation of tgfb1^−/− fibroblasts with TGF-β1 (or control) and analyzed for differential expression of 128 genes related to TGF-β signaling, using a commercially available filter array (Superarray Bioscience Corp.; FIG. 1I). […]

Compound	Relative TGF-β activity, fold change compared with vehicle ([1]; 3 μM) [fold]	Relative TGF-β activity, fold change compared with vehicle ([1]; 10 μM) [fold]	Relative TGF-β activity, fold change compared with vehicle ([1]; 30 μM) [fold]	Relative TGF-β activity, fold change compared with vehicle ([1]; 100 μM) [fold]	also measured
COCCN(CC(=O)N(CCc1c[nH]c2ccccc12)Cc1ccccc1)C(=O)Cc1cccs1 [Compound 3A, N-(2-(1H-indol-3-yl)ethyl)-N-benzyl-2-(N-(2-methoxyethyl)-2-(thiophen-2-yl)acetamido)acetamide]	1.7	2.9	5.2	11.4	TGF-β agonist activity [1]: TGF-β-agonists; Signaling in the absence of Smad4 [2]: not affected (or was even stronger)
CCOC(=O)CNC(=O)Nc1ccc(N2CCN(c3ccccc3OC)CC2)c(C(=O)NC(C)c2ccccc2)c1 (stereo not drawn) [Compound 5E, ethyl 2-(3-(4-(4-(2-methoxyphenyl)piperazin-1-yl)-3-(1-phenylethylcarbamoyl)phenyl)ureido)acetate]					TGF-β agonist activity [1]: TGF-β-agonists
COCCN(CC(=O)N(CCc1c[nH]c2ccccc12)Cc1ccc(F)cc1)C(=O)C(C)Cl (stereo not drawn) [Compound 13F03]	1.3	1.9	3.8	9.1	
COCCCN(CC(=O)N(CCc1c[nH]c2ccccc12)Cc1ccc(C(F)(F)F)cc1)C(=O)C1CC1c1ccccc1 (stereo not drawn) [Compound 21A08]	1.1	1.5	1.9	2.7	
Cc1ccc(C(=O)N(CC(=O)N(CCc2c[nH]c3ccccc23)Cc2ccc(C(F)(F)F)cc2)C(C)C)cc1[N+](=O)[O-] [Compound 21F11]	0.8	1.6	2.7	6.5	
COCCN(CC(=O)N(CCc1c[nH]c2ccccc12)Cc1ccc(F)cc1)C(=O)c1ccc(Cl)c([N+](=O)[O-])c1 [Compound 22B05]	1.1	1.2	1.7	2.8	
COCCCN(CC(=O)N(CCc1c[nH]c2ccccc12)Cc1ccc(F)cc1)C(=O)c1ccccc1Cl [Compound 22D03]	1.4	3.7	8.3	8.8	
COCCCN(CC(=O)N(CCc1c[nH]c2ccccc12)Cc1ccc(F)cc1)C(=O)c1ccc(C(F)(F)F)cc1 [Compound 22E02]	1.4	4.7	8.6	9.1	
CC(C)N(CC(=O)N(CCc1c[nH]c2ccccc12)Cc1ccc(N(C)C)cc1)C(=O)C(Cl)Cl [Compound 23B08]	1.1	1.8	3.1	4.5	
CCOC(=O)CCC(=O)N(CC(=O)N(CCc1c[nH]c2ccccc12)Cc1ccc(N(C)C)cc1)C(C)C [Compound 23D05]	0.8	1.1	1.7	4.7	
COCCN(CC(=O)N(CCc1c[nH]c2ccccc12)Cc1ccc(OC)c(OC)c1)C(=O)C(Cl)Cl [Compound 24D04]	1.2	1.1	1.5	2.7	
CC(C)N(CC(=O)N(CCc1c[nH]c2ccccc12)Cc1ccc(Cl)c(Cl)c1)C(=O)CC(C)(C)C [Compound 37C02]	0.7	1.0	1.4	3.1	
CC(C)(CCl)C(=O)N(CC(=O)N(CCc1c[nH]c2ccccc12)Cc1ccccc1)C1CC1 [Compound 44A04]	1.2	2.3	2.7	2.8	
CC(C(=O)O)c1ccc(-c2ccccc2)c(F)c1 (stereo not drawn) [flurbiprofen]					TGF-β signaling in the brain after LPS (bioluminescence) ([3]; FIG. 4E): strongly reduced; Microglial activation after LPS ([3]; data not shown): strongly reduced
TGF-β1: recombinant transforming growth factor-β1, reference activator of the TGF-β signaling pathway					TGF-β signaling in vivo, tissue luciferase in hippocampal homogenates [4]: activated TGF-β signaling in vivo; Signaling in the absence of Smad4 [2]: blocked or strongly inhibited; Protection of neurons against Aβ toxicity (survival) [5]: consistently protected neurons and increased survival; Expression of TGF-β signaling genes (Fos, Jun, Myc, Smad1, Smad2, Smad3, Interleukin-6) [6]: induced
